Experiments:
Assay type in all cases: biochemical
Settings in all cases: 100 micromolar inhibitor concentration, 100 is no change
SIK3 = SIK3 (Homo sapiens, UniProt Q9Y2K2); assay: Kinase profiling SIK3
Text: (§1) Any value less that 25 is considered to be highly significant inhibition.

TESK1 = TESK1 (Homo sapiens, UniProt Q15569); assay: Kinase profiling TESK1
Text: as §1

ERK5 = ERK5 (Homo sapiens, UniProt Q13164); assay: Kinase profiling ERK5
Text: as §1

NUAK1 = molecular target: T1, NUAK1 (Homo sapiens, UniProt O60285); assay: Kinase profiling NUAK1
T1 sequence (O60285 1-661): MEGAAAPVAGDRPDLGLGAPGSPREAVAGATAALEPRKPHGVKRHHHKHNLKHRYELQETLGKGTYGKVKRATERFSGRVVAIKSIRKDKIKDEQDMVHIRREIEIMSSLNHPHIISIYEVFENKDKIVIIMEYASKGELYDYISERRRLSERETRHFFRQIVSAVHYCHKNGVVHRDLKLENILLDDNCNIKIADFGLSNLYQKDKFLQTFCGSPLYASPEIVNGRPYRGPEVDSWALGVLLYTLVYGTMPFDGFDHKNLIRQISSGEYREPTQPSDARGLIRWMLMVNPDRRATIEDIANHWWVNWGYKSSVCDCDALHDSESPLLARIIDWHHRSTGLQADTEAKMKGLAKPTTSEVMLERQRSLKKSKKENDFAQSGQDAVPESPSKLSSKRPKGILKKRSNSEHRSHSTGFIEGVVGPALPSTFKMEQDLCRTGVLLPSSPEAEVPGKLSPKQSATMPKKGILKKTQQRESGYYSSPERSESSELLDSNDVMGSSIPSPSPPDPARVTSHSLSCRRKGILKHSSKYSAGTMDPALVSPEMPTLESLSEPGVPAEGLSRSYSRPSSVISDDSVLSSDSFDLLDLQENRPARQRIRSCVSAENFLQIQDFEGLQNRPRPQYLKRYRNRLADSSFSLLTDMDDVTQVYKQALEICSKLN
Text: as §1

MARK4 = molecular target: T2, MARK4 (Homo sapiens, UniProt Q96L34); assay: Kinase profiling MARK4
T2 sequence (Q96L34 1-752): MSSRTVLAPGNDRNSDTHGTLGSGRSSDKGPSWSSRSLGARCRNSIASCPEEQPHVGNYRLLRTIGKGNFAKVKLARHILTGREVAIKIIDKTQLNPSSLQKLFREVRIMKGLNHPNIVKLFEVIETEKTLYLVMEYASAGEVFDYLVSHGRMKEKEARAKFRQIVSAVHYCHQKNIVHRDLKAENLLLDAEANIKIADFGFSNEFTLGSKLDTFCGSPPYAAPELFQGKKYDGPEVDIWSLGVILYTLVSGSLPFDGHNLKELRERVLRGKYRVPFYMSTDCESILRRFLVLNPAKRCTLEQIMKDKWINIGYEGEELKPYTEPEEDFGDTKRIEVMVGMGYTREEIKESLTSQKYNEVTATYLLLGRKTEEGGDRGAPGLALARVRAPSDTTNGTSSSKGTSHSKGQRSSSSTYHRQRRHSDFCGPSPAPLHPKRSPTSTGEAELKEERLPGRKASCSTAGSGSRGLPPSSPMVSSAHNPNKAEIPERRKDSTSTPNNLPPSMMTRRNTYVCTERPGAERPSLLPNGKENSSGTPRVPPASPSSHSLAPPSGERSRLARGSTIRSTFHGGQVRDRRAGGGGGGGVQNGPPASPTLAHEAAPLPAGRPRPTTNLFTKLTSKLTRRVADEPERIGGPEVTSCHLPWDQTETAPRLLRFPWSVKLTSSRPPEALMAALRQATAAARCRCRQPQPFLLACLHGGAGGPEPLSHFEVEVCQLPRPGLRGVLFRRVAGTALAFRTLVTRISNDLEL
Text: as §1

ASK1 = molecular target: T3, ASK1 (Homo sapiens, UniProt Q99683); assay: Kinase profiling ASK1
T3 sequence (Q99683 1-1374): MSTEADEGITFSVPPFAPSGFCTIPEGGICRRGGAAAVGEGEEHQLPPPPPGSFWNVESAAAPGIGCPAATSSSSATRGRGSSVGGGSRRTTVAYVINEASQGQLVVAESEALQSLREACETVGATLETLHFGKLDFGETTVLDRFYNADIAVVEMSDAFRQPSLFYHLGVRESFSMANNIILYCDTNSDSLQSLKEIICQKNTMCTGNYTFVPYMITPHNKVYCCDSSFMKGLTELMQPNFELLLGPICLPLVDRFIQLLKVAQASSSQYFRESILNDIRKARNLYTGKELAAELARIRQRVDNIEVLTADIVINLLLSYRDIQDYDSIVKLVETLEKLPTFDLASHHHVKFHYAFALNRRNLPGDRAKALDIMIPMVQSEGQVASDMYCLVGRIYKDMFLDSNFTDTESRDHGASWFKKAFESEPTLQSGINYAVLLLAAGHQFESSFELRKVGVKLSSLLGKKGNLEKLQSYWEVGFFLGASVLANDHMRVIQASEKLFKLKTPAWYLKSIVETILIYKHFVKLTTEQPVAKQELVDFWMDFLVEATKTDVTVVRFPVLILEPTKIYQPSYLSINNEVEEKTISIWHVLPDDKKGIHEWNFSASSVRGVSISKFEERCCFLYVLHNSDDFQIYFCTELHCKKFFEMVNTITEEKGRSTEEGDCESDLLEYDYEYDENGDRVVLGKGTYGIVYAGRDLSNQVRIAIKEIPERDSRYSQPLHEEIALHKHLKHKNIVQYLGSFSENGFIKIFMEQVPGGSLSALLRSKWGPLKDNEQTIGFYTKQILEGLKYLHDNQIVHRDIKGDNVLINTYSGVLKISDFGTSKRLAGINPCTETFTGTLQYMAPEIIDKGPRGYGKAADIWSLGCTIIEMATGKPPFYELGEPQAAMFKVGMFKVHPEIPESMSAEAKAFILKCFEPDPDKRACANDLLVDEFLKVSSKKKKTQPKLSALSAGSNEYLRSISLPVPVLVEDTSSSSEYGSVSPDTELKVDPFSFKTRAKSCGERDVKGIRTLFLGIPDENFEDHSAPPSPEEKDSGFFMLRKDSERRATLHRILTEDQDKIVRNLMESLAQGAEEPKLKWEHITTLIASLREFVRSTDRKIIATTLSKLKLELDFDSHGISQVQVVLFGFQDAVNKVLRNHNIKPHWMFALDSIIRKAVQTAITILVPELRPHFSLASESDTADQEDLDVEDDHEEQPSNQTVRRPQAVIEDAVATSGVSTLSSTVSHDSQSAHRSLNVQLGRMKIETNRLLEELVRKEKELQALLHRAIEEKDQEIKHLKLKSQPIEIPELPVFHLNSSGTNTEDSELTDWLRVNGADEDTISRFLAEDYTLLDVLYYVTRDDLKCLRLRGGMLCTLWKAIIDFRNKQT
Text: as §1

Chain of ERK5 (Q13164 whole entry, species assumed): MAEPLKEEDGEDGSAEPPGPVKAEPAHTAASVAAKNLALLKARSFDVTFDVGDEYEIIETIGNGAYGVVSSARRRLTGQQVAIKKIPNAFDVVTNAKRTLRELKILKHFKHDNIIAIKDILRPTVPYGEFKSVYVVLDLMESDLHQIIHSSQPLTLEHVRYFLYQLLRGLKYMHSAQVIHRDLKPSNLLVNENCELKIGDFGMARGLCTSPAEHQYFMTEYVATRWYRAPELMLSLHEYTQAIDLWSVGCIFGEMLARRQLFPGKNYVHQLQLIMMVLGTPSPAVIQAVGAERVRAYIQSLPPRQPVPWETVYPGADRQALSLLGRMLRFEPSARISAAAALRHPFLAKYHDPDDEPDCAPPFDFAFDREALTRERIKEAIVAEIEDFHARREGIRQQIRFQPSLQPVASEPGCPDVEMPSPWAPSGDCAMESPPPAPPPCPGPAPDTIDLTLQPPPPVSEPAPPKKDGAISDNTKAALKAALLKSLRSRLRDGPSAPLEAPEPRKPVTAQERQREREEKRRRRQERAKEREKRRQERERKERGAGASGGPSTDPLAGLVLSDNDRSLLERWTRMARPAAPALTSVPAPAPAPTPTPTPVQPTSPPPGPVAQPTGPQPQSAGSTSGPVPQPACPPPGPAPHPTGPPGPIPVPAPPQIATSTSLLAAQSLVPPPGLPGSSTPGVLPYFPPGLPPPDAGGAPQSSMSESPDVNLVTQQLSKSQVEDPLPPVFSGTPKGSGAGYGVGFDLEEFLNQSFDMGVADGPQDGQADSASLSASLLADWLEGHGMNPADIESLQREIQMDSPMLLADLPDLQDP
Chain of TESK1 (Q15569 whole entry, species assumed): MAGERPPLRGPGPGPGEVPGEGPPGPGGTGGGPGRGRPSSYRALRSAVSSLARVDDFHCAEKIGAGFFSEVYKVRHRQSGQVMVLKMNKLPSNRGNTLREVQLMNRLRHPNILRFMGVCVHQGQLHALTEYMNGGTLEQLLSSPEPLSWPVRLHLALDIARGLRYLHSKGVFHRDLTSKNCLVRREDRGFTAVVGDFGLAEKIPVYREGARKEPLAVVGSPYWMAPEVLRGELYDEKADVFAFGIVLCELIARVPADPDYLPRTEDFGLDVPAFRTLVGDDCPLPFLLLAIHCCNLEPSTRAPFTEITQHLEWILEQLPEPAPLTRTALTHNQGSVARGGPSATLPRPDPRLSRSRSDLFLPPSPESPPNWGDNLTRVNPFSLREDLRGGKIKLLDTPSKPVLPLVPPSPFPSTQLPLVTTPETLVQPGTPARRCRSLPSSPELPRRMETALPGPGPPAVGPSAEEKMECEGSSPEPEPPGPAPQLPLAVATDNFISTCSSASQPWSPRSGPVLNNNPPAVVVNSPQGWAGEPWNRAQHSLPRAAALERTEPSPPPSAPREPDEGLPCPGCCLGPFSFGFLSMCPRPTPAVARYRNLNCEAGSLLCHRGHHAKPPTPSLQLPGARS
Chain of SIK3 (Q9Y2K2 whole entry, species assumed): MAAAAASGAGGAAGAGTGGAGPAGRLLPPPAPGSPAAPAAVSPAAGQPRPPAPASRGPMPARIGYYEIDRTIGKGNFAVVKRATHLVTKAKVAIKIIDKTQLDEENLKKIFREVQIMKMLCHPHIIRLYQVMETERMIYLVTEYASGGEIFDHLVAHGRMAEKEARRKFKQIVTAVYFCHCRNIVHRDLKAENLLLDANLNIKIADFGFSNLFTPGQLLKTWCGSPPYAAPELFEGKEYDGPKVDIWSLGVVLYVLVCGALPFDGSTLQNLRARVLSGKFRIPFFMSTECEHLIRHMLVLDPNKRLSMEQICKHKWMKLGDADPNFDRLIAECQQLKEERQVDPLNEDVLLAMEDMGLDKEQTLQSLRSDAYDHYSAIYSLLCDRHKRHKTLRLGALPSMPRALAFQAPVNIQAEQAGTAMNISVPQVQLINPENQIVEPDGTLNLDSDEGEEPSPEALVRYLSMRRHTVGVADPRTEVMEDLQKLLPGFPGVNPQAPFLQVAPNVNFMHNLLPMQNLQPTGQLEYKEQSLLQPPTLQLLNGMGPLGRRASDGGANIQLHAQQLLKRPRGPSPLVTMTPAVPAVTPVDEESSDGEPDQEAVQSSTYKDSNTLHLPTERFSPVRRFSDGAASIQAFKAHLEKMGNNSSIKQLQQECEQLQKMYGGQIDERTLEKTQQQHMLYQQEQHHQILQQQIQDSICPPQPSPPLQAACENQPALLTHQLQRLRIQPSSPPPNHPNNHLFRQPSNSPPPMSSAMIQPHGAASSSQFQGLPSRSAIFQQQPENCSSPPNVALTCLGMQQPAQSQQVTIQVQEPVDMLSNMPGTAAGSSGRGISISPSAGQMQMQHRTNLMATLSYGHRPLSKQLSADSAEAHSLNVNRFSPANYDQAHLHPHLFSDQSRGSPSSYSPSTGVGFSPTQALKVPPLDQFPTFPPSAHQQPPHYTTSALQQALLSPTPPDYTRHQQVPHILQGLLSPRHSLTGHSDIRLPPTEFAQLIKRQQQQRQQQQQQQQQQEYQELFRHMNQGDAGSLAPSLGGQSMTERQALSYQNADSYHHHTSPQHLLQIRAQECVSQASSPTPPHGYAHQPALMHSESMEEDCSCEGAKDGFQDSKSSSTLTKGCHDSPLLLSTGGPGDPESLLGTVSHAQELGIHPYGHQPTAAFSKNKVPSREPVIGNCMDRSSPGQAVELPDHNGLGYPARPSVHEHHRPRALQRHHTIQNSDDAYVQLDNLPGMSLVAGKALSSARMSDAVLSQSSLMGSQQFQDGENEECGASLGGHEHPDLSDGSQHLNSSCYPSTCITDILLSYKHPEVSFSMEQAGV

| Structure (SMILES) | residual kinase activity, SIK3 (SIK3) | residual kinase activity, TESK1 (TESK1) | residual kinase activity, ERK5 (ERK5) | residual kinase activity, NUAK1 (NUAK1) | residual kinase activity, MARK4 (MARK4) | residual kinase activity, ASK1 (ASK1) | remaining activity at 100 µM (SIK3; read-out: residual kinase activity, SIK3) | remaining activity at 100 µM (TESK1; read-out: residual kinase activity, TESK1) | remaining activity at 100 µM (ERK5; read-out: residual kinase activity, ERK5) | remaining activity at 100 µM (NUAK1; read-out: residual kinase activity, NUAK1) | remaining activity at 100 µM (MARK4; read-out: residual kinase activity, MARK4) | remaining activity at 100 µM (ASK1; read-out: residual kinase activity, ASK1) |
| --- | --- | --- | --- | --- | --- | --- | --- | --- | --- | --- | --- | --- |
| O=C(Nc1nc2ccc(O)cc2s1)c1ccncc1 [Compound 08-42] | 67 | 73 | 41 | 57 | 82 | 37 | – | – | – | – | – | – |
| O=C(Nc1nc2cc(O)ccc2s1)c1ccccn1 [Compound 03-13] | 96 | 93 | 51 | 64 | 71 | 88 | – | – | – | – | – | – |
| COc1ccc2sc(NC(C)=O)nc2c1 [Compound 03-21] | – | – | – | – | – | – | 121% | 104% | 57% | 84% | 100% | 97% |
| O=C(Nc1nc2cc(O)ccc2s1)c1ccncc1 [Compound 03-11] | 99 | 88 | 58 | 86 | 102 | 79 | – | – | – | – | – | – |

Reference: US10231954B2, “Neurodegenerative therapies” (LYTIX BIOPHARMA AS, priority 2014, dated 2019)
